Measurements taken from the supplement of paper PMC4628005.

Assays:
Conditions in all cases: drug exposure time: 96 h
Methotrexate = compound: CN(Cc1cnc2nc(N)nc(N)c2n1)c1ccc(C(=O)N[C@@H](CCC(=O)O)C(=O)O)cc1 [Methotrexate]
Protocol: (§1)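 Breast cancer cell lines were grown in RPMI 1640 with 10% FBS on collagen I-coated 96-well plates and treated for 96 h (from 24 h after seeding) with 12 dilutions per drug, in triplicate. Growth was read by sulforhodamine B total-protein staining (absorbance 570 nm) relative to diluent control, and IC50 was calculated. The top dose was 1e-5 M for most drugs; Bortezomib went to 2e-5 M and Sirolimus and 17-AAG to 2e-6 M[…].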

Vorinostat = compound: O=C(CCCCCCC(=O)Nc1ccccc1)NO [Vorinostat]
Protocol: as §1

Dasatinib = compound: Cc1nc(Nc2ncc(C(=O)Nc3c(C)cccc3Cl)s2)cc(N2CCN(CCO)CC2)n1 [Dasatinib]
Protocol: as §1

Quisinostat = compound: Cn1cc(CNCC2CCN(c3ncc(C(=O)NO)cn3)CC2)c2ccccc21 [Quisinostat]
Protocol: as §1

Tamoxifen = compound: CC/C(=C(\c1ccccc1)c1ccc(OCCN(C)C)cc1)c1ccccc1 [Tamoxifen]
Protocol: as §1

Sorafenib = compound: CNC(=O)c1cc(Oc2ccc(NC(=O)Nc3ccc(Cl)c(C(F)(F)F)c3)cc2)ccn1 [Sorafenib]
Protocol: as §1

Panobinostat = compound: Cc1[nH]c2ccccc2c1CCNCc1ccc(/C=C/C(=O)NO)cc1 [Panobinostat]
Protocol: as §1

Brivanib = compound: Cc1cc2c(F)c(Oc3ncnn4cc(OC[C@@H](C)O)c(C)c34)ccc2[nH]1 [Brivanib]
Protocol: as §1

Decitabine = compound: Nc1ncn([C@H]2C[C@H](O)[C@@H](CO)O2)c(=O)n1 [Decitabine]
Protocol: as §1

Azacitidine = compound: Nc1ncn([C@@H]2O[C@H](CO)[C@@H](O)[C@H]2O)c(=O)n1 [Azacitidine]
Protocol: as §1

ARQ197 = compound: O=C1NC(=O)[C@@H](c2cn3c4c(cccc24)CCC3)[C@@H]1c1c[nH]c2ccccc12 [ARQ197]
Protocol: as §1

5-Fluorouracil = compound: O=c1[nH]cc(F)c(=O)[nH]1 [5-Fluorouracil]
Protocol: as §1

Doxorubicin = compound: COc1cccc2c1C(=O)c1c(O)c3c(c(O)c1C2=O)C[C@@](O)(C(=O)CO)C[C@@H]3O[C@H]1C[C@H](N)[C@H](O)[C@H](C)O1 [Doxorubicin]
Protocol: as §1

Nutlin-3 = compound: COc1ccc(C2=N[C@@H](c3ccc(Cl)cc3)[C@@H](c3ccc(Cl)cc3)N2C(=O)N2CCNC(=O)C2)c(OC(C)C)c1 [Nutlin-3]
Protocol: as §1

Lapatinib = compound: CS(=O)(=O)CCNCc1ccc(-c2ccc3ncnc(Nc4ccc(OCc5cccc(F)c5)c(Cl)c4)c3c2)o1 [Lapatinib]
Protocol: as §1

Serdemetan = compound: c1ccc2c(CCNc3ccc(Nc4ccncc4)cc3)c[nH]c2c1 [Serdemetan]
Protocol: as §1

Gefitinib = compound: COc1cc2ncnc(Nc3ccc(F)c(Cl)c3)c2cc1OCCCN1CCOCC1 [Gefitinib]
Protocol: as §1

Paclitaxel = compound: CC(=O)O[C@H]1C(=O)[C@@]2(C)[C@H]([C@H](OC(=O)c3ccccc3)[C@]3(O)C[C@H](OC(=O)[C@H](O)[C@@H](NC(=O)c4ccccc4)c4ccccc4)C(C)=C1C3(C)C)[C@]1(OC(C)=O)CO[C@@H]1C[C@@H]2O [Paclitaxel]
Protocol: as §1

Sunitinib = compound: CCN(CC)CCNC(=O)c1c(C)[nH]c(/C=C2\C(=O)Nc3ccc(F)cc32)c1C [Sunitinib]
Protocol: as §1

Cisplatin = compound: N.N.[Cl][Pt][Cl] [Cisplatin]
Protocol: as §1

Belinostat = compound: O=C(/C=C/c1cccc(S(=O)(=O)Nc2ccccc2)c1)NO [Belinostat]
Protocol: as §1

Erlotinib = compound: C#Cc1cccc(Nc2ncnc3cc(OCCOC)c(OCCOC)cc23)c1 [Erlotinib]
Protocol: as §1

Vandetanib = compound: COc1cc2/c(=N/c3ccc(Br)cc3F)nc[nH]c2cc1OCC1CCN(C)CC1 [Vandetanib]
Protocol: as §1

Tipifarnib = compound: Cn1cncc1[C@@](N)(c1ccc(Cl)cc1)c1ccc2c(c1)c(-c1cccc(Cl)c1)cc(=O)n2C [Tipifarnib]
Protocol: as §1

Docetaxel = compound: CC(=O)O[C@@]12CO[C@@H]1C[C@H](O)[C@@]1(C)C(=O)[C@H](O)C3=C(C)[C@@H](OC(=O)[C@H](O)[C@@H](NC(=O)OC(C)(C)C)c4ccccc4)C[C@@](O)([C@@H](OC(=O)c4ccccc4)[C@H]21)C3(C)C [Docetaxel]
Protocol: as §1

Mitoxantrone = compound: O=C1c2c(O)ccc(O)c2C(=O)c2c(NCCNCCO)ccc(NCCNCCO)c21 [Mitoxantrone]
Protocol: as §1

MI-219 = compound: CC(C)(C)C[C@H]1N[C@@H](C(=O)NCC[C@H](O)CO)[C@H](c2cccc(Cl)c2)[C@@]12C(=O)Nc1cc(Cl)c(F)cc12 [MI-219]
Protocol: as §1

Sirolimus = compound: CO[C@H]1C[C@@H]2CC[C@@H](C)[C@@](O)(O2)C(=O)C(=O)N2CCCC[C@H]2C(=O)O[C@H]([C@H](C)C[C@@H]2CC[C@@H](O)[C@H](OC)C2)CC(=O)[C@H](C)/C=C(\C)[C@@H](O)[C@@H](OC)C(=O)[C@H](C)C[C@H](C)/C=C/C=C/C=C/1C [Sirolimus]
Protocol: (§2)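 Same SRB 96 h IC50 screen on breast cancer cell lines (RPMI 1640 + 10% FBS, collagen I-coated 96-well plates, triplicates, 12 dilutions), for drugs with a different dose range: Bortezomib up to 2e-5 M; Sirolimus and 17-AAG up to 2e-6 M. Sirolimus values at the 2e-6 M top dose are censored.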

Bortezomib = compound: CC(C)C[C@H](NC(=O)[C@H](Cc1ccccc1)NC(=O)c1cnccn1)B(O)O [Bortezomib]
Protocol: as §2

17-AAG = compound: C=CCNC1=C2C[C@@H](C)C[C@H](OC)[C@H](O)[C@@H](C)/C=C(\C)[C@H](OC(N)=O)[C@@H](OC)/C=C\C=C(/C)C(=O)NC(=CC1=O)C2=O [17-AAG]
Protocol: as §2

Test System | IC50 (SRB growth assay) (Methotrexate) | IC50 (SRB growth assay) (Vorinostat) | IC50 (SRB growth assay) (Dasatinib) | IC50 (SRB growth assay) (Quisinostat) | IC50 (SRB growth assay) (Tamoxifen) | IC50 (SRB growth assay) (Sorafenib) | IC50 (SRB growth assay) (Panobinostat) | IC50 (SRB growth assay) (Brivanib) | IC50 (SRB growth assay) (Decitabine) | IC50 (SRB growth assay) (Azacitidine) | IC50 (SRB growth assay) (ARQ197) | IC50 (SRB growth assay) (5-Fluorouracil) | IC50 (SRB growth assay) (Doxorubicin) | IC50 (SRB growth assay) (Nutlin-3) | IC50 (SRB growth assay) (Lapatinib) | IC50 (SRB growth assay) (Serdemetan) | IC50 (SRB growth assay) (Gefitinib) | IC50 (SRB growth assay) (Paclitaxel) | IC50 (SRB growth assay) (Sunitinib) | IC50 (SRB growth assay) (Cisplatin) | IC50 (SRB growth assay) (Belinostat) | IC50 (SRB growth assay) (Erlotinib) | IC50 (SRB growth assay) (Vandetanib) | IC50 (SRB growth assay) (Tipifarnib) | IC50 (SRB growth assay) (Docetaxel) | IC50 (SRB growth assay) (Mitoxantrone) | IC50 (SRB growth assay) (MI-219) | IC50 (SRB growth assay) (Sirolimus) | IC50 (SRB growth assay) (Bortezomib) | IC50 (SRB growth assay) (17-AAG)
HCC 38 | 12.3 nM | 610 nM | 115 nM | 3.31 nM | > 10000 nM | 5260 nM | 6.57 nM | > 10000 nM | 132 nM | 746 nM | 131 nM | 2790 nM | 5.51 nM | > 10000 nM | 5520 nM | 443 nM | > 10000 nM | 1.39 nM | 9910 nM | > 10000 nM | 250 nM | > 10000 nM | 5540 nM | 294 nM | 0.51 nM | 1.89 nM | > 10000 nM | 0.166 nM | 5.22 nM | 72.2 nM
HCC 70 | 30.1 nM | 781 nM | > 10000 nM | 5.48 nM | > 10000 nM | 6250 nM | 8.26 nM | > 10000 nM | 2360 nM | 2380 nM | 324 nM | 5360 nM | 40.6 nM | > 10000 nM | 3750 nM | 1570 nM | 9360 nM | 2.08 nM | 6810 nM | > 10000 nM | 356 nM | > 10000 nM | 3960 nM | 85.1 nM | 0.539 nM | 74.3 nM | > 10000 nM | 0.222 nM | 2.84 nM | 37.3 nM
HCC 202 | 47.6 nM | 1130 nM | 1200 nM | 6.54 nM | > 10000 nM | 5170 nM | 16.7 nM | > 10000 nM | > 10000 nM | 4630 nM | 427 nM | 7370 nM | 76.5 nM | > 10000 nM | 199 nM | 5010 nM | 8050 nM | 4.3 nM | > 10000 nM | > 10000 nM | 487 nM | 6060 nM | 3780 nM | > 10000 nM | 1.72 nM | 213 nM | > 10000 nM | 5.17 nM | 1.51 nM | 49.5 nM
HCC 1143 | 24.7 nM | 857 nM | 5110 nM | 4.84 nM | 4990 nM | 6060 nM | 11 nM | > 10000 nM | 148 nM | 2070 nM | 481 nM | 1980 nM | 16.5 nM | > 10000 nM | 2250 nM | 921 nM | 1040 nM | 1.52 nM | 4730 nM | > 10000 nM | 350 nM | 1080 nM | 1830 nM | 749 nM | 0.306 nM | 3.93 nM | > 10000 nM | 0.62 nM | 4.31 nM | 56.6 nM
